Reference: the NIST ThermoML archive (doi:10.1021/je900749a)
Numbers after ± are expanded uncertainties.

Test: cn = amount concentration of the nth substance listed, in mol/dm3
Conditions: 300 K, Ring tensiometer

CN(C)CCC=C1c2ccccc2CCc2ccccc21.Cl + O
Conditions | surface tension liquid-gas [mN/m]
c1 = 0.001584 | 69.15 ± 1.2
c1 = 0.003138 | 62.75 ± 1.1
c1 = 0.009057 | 55.25 ± 0.95
c1 = 0.01455 | 50.75 ± 0.88
c1 = 0.02441 | 46.1 ± 0.81
c1 = 0.02885 | 44.55 ± 0.79
c1 = 0.03301 | 43.15 ± 0.76
c1 = 0.0406 | 42.55 ± 0.75
c1 = 0.04572 | 42.5 ± 0.75

CN(C)CCCN1c2ccccc2CCc2ccccc21.Cl + O
Conditions | surface tension liquid-gas [mN/m]
c1 = 0.003658 | 68.55 ± 1.2
c1 = 0.007143 | 62.15 ± 1.1
c1 = 0.01364 | 54.6 ± 0.94
c1 = 0.01957 | 51.7 ± 0.9
c1 = 0.03 | 47.05 ± 0.82
c1 = 0.03889 | 43.75 ± 0.77
c1 = 0.04287 | 43 ± 0.76
c1 = 0.04655 | 42.3 ± 0.75
c1 = 0.05 | 42.3 ± 0.75
c1 = 0.05769 | 42.3 ± 0.75

CN(C)CCCN1c2ccccc2Sc2ccc(Cl)cc21.Cl + O
Conditions | surface tension liquid-gas [mN/m]
c1 = 0.001381 | 65.7 ± 1.2
c1 = 0.002344 | 60.5 ± 1.1
c1 = 0.003289 | 57.15 ± 1.1
c1 = 0.004762 | 53.4 ± 1
c1 = 0.006542 | 50.5 ± 0.96
c1 = 0.009091 | 47.15 ± 0.9
c1 = 0.01228 | 45.2 ± 0.87
c1 = 0.01525 | 44.15 ± 0.85
c1 = 0.01666 | 44 ± 0.85
c1 = 0.01803 | 44.05 ± 0.85
c1 = 0.01936 | 44 ± 0.85

CC(CN1c2ccccc2Sc2ccccc21)N(C)C.Cl (stereo not given) [promethazine hydrochloride] + O
Conditions | surface tension liquid-gas [mN/m]
c1 = 0.002941 | 71.3 ± 1.2
c1 = 0.005769 | 64.15 ± 1.1
c1 = 0.01111 | 56.45 ± 0.97
c1 = 0.01842 | 50.35 ± 0.88
c1 = 0.02903 | 46.45 ± 0.81
c1 = 0.03637 | 43.4 ± 0.77
c1 = 0.04287 | 42.55 ± 0.75
c1 = 0.04865 | 42.2 ± 0.75
c1 = 0.05385 | 42.1 ± 0.75
c1 = 0.05853 | 42.15 ± 0.75
